Test results taken from patent EP1202975B1, “SUBSTITUTED POLYCYCLIC ARYL AND HETEROARYL PYRAZINONES USEFUL FOR SELECTIVE INHIBITION OF THE COAGULATION CASCADE” (Pharmacia Corporation, priority 1999, dated 2000).
Like-named read-outs stand apart in the source and are kept apart here.

What was measured:
TF-VIIa = biological target: T1, TF-VIIa (Homo sapiens, UniProt P08709); assay: TF-VIIa Assay; type: biochemical
T1 construct: 2nM recombinant human factor VIIa; purchased American Diagnostica, Greenwich CT; host or cells: soluble TF made in house in E. coli
T1 sequence (P08709 213-466 limits assumed): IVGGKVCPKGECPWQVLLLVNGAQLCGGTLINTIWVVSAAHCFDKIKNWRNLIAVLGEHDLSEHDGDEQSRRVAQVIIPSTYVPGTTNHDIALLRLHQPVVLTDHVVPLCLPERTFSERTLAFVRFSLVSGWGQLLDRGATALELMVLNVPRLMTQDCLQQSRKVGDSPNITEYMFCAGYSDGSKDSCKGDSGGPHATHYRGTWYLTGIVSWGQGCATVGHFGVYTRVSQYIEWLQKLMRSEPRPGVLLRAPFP
T1 sequence (P08709 61-212 limits assumed): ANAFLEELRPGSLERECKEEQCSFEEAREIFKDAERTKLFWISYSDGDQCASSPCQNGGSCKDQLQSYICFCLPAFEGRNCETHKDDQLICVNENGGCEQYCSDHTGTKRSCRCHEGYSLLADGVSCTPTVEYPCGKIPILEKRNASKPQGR
T1 sequence (P13726 33-251 partner limits assumed): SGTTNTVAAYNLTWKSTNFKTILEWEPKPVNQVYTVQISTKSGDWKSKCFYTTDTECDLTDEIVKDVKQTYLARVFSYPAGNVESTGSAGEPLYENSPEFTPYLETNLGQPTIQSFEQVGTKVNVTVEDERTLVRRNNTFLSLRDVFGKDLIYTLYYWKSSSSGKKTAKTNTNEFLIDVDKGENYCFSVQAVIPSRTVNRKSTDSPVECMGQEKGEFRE

Human factor Xa = Human factor Xa (Homo sapiens, UniProt P00742)
Chain of Human factor Xa (P00742 235-488 limits assumed): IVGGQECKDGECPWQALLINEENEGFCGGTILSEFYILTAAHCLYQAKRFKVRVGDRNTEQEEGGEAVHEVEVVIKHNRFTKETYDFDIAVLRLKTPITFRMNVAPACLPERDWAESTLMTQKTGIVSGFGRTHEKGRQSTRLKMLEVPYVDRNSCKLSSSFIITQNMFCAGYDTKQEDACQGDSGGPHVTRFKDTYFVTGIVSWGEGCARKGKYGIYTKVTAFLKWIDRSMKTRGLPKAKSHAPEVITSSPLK
Chain of Human factor Xa (P00742 41-179 limits assumed): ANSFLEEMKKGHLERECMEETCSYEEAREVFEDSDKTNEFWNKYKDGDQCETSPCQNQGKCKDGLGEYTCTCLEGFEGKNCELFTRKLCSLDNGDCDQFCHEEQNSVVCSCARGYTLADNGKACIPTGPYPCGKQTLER

[1] = read-out: IC50 or % Inhibition TF-VIIa (30 µM); cells given as a plain number (IC50)
[2] = cells given as a plain number (IC50); read-out: IC50 or % Inhibition TF-VIIa (30 µM)

Compound	% Inhibition TF-VIIa (100 µM) (TF-VIIa; 100 µM) [%]	further results
Cc1c(Cl)nc(NCc2ccccc2)c(=O)n1CC(=O)NCc1ccc(C(=N)N)cc1 [1471-1]	–	IC50 (TF-VIIa; [1]): 8.17 µM; IC50 or % Inhibition Factor Xa (30 µM) (Human factor Xa): 10%
Cc1c(Cl)nc(NCCc2ccc(Cl)cc2)c(=O)n1CC(=O)NCc1ccc(C(=N)N)cc1 [1471-2]	–	IC50 (TF-VIIa; [1]): 3.62 µM; IC50 or % Inhibition Factor Xa (30 µM) (Human factor Xa): 10%
Cc1c(Cl)nc(NCc2ccncc2)c(=O)n1CC(=O)NCc1ccc(C(=N)N)cc1 [1471-3]	–	IC50 (TF-VIIa; [1]): 13.6 µM; IC50 or % Inhibition Factor Xa (30 µM) (Human factor Xa): 0%
Cc1c(Cl)nc(NCCN2CCOCC2)c(=O)n1CC(=O)NCc1ccc(C(=N)N)cc1 [1471-4]	–	IC50 (TF-VIIa; [1]): 29.4 µM; IC50 or % Inhibition Factor Xa (30 µM) (Human factor Xa): 0%
Cc1c(Cl)nc(NCCc2ccncc2)c(=O)n1CC(=O)NCc1ccc(C(=N)N)cc1 [1471-5]	–	IC50 (TF-VIIa; [1]): 8.69 µM; IC50 or % Inhibition Factor Xa (30 µM) (Human factor Xa): 12%
Cc1c(Cl)nc(NCCc2cccc(Cl)c2)c(=O)n1CC(=O)NCc1ccc(C(=N)N)cc1 [1471-6]	–	IC50 (TF-VIIa; [1]): 2.85 µM; IC50 or % Inhibition Factor Xa (30 µM) (Human factor Xa): 14%
Cc1c(Cl)nc(NCCc2ccccc2)c(=O)n1CC(=O)NCc1ccc(C(=N)N)cc1 [1471-7]	–	IC50 (TF-VIIa; [2]): 4.28 µM; IC50 or % Inhibition Factor Xa (30 µM) (Human factor Xa): 4%
Cc1c(Cl)nc(NCCc2cccnc2)c(=O)n1CC(=O)NCc1ccc(C(=N)N)cc1 [1471-8]	–	IC50 (TF-VIIa; [1]): 3.86 µM; IC50 or % Inhibition Factor Xa (30 µM) (Human factor Xa): 27%
N=C(N)c1ccc(CNC(=O)Cn2c(-c3ccccc3)c(Cl)nc(NCc3ccccc3)c2=O)cc1 [1471-9]	–	IC50 (TF-VIIa; [2]): 0.77 µM; IC50 or % Inhibition Factor Xa (30 µM) (Human factor Xa): 29%
N=C(N)c1ccc(CNC(=O)Cn2c(-c3ccccc3)c(Cl)nc(NCCc3ccc(Cl)cc3)c2=O)cc1 [1471-10]	–	IC50 (TF-VIIa; [2]): 0.6 µM; IC50 or % Inhibition Factor Xa (30 µM) (Human factor Xa): 45%
N=C(N)c1ccc(CNC(=O)Cn2c(-c3ccccc3)c(Cl)nc(NCc3ccncc3)c2=O)cc1 [1471-11]	–	IC50 (TF-VIIa; [1]): 1.69 µM; IC50 or % Inhibition Factor Xa (30 µM) (Human factor Xa): 9%
N=C(N)c1ccc(CNC(=O)Cn2c(-c3ccccc3)c(Cl)nc(NCCN3CCOCC3)c2=O)cc1 [1471-12]	–	IC50 (TF-VIIa; [2]): 7.97 µM; IC50 or % Inhibition Factor Xa (30 µM) (Human factor Xa): 9%
N=C(N)c1ccc(CNC(=O)Cn2c(-c3ccccc3)c(Cl)nc(NCCc3cccc(Cl)c3)c2=O)cc1 [1471-14]	–	IC50 (TF-VIIa; [2]): 0.18 µM
N=C(N)c1ccc(CNC(=O)Cn2c(-c3ccccc3)c(Cl)nc(NCCc3cccnc3)c2=O)cc1 [1471-16]	–	IC50 (TF-VIIa; [1]): 0.82 µM; IC50 or % Inhibition Factor Xa (30 µM) (Human factor Xa): 23%
N=C(N)c1ccc(CNC(=O)Cn2c(-c3ccc(Cl)cc3)c(Cl)nc(NCc3ccccc3)c2=O)cc1 [1471-17]	–	IC50 (TF-VIIa; [1]): 11 µM
N=C(N)c1ccc(CNC(=O)Cn2c(-c3ccc(Cl)cc3)c(Cl)nc(NCCc3ccncc3)c2=O)cc1 [1471-21]	–	IC50 (TF-VIIa; [1]): 8.18 µM
N=C(N)c1ccc(CNC(=O)Cn2c(-c3ccc(Cl)cc3)c(Cl)nc(NCCc3cccnc3)c2=O)cc1 [1471-24]	–	IC50 (TF-VIIa; [1]): 10 µM
N=C(N)c1ccc(CNC(=O)Cn2c(-c3cccc(N)c3)c(Cl)nc(NCCN3CCCC3)c2=O)c(F)c1 [1543-37]	–	IC50 (TF-VIIa; read-out: IC50 or % Inhibition TF-VIIa (30 µM); cells without % sign: IC50): 1.23 µM
Nc1cccc(-c2c(Cl)nc(NC3CCC3)c(=O)n2CC(=O)NCc2ccc(C3=NCCN3)cc2)c1 [Example 27]	–	IC50 (TF-VIIa; [2]): 12.5 µM
NCc1ccc(CNC(=O)Cn2c(-c3cccc(N)c3)c(Cl)nc(NC3CCC3)c2=O)cc1 [Example 28]	–	IC50 (TF-VIIa; [2]): 3 µM
O=C(Cn1c(-c2ccc(Cl)cc2)c(Cl)nc(NCCc2ccc(Cl)cc2)c1=O)NCCc1ccncc1 [Example E-0020]	0	–
O=C(Cn1c(-c2ccc(Cl)cc2)c(Cl)nc(NCCc2ccncc2)c1=O)NCCc1ccncc1 [Example E-0022]	0	–
O=C(Cn1c(-c2ccc(Cl)cc2)c(Cl)nc(NCc2ccncc2)c1=O)NCCc1ccncc1 [Example E-0024]	0	–

Compound	% Inhibition TF-VIIa (100 µM) (TF-VIIa; 100 µM) [%]	further results
O=C(Cn1c(-c2ccc(Cl)cc2)c(Cl)nc(NCc2ccccc2)c1=O)NCCc1ccncc1 [Example E-0025]	0	–
O=C(Cn1c(-c2ccc(Cl)cc2)c(Cl)nc(NCCc2ccccc2)c1=O)NCCc1ccncc1 [Example E-0026]	0	–
O=C(Cn1c(-c2ccc(Cl)cc2)c(Cl)nc(NCCc2ccc(Cl)cc2)c1=O)NCCc1ccncc1 [Example E-0028]	0	–
O=C(Cn1c(-c2ccc(Cl)cc2)c(Cl)nc(NCc2ccncc2)c1=O)NCCc1ccncc1 [Example E-0032]	0	–
COc1ccc(-c2c(Cl)nc(NCCc3ccccc3)c(=O)n2CC(=O)NCCc2ccncc2)cc1 [Example E-0034]	0	–
COc1ccc(-c2c(Cl)nc(NCCc3ccc(Cl)cc3)c(=O)n2CC(=O)NCCc2ccncc2)cc1 [Example E-0036]	0	–
O=C(Cn1c(-c2ccc(-c3ccccc3)cc2)c(Cl)nc(NCc2ccccc2)c1=O)NCCc1ccncc1 [Example E-0049]	2	–
O=C(Cn1c(-c2ccc(-c3ccccc3)cc2)c(Cl)nc(NCCc2ccc(Cl)cc2)c1=O)NCCc1ccncc1 [Example E-0052]	0	–
O=C(Cn1c(-c2cccc(Cl)c2)c(Cl)nc(NCc2ccccc2)c1=O)NCCc1ccncc1 [Example E-0073]	0	–
O=C(Cn1c(-c2cccc(Cl)c2)c(Cl)nc(NCCc2ccccc2)c1=O)NCCc1ccncc1 [Example E-0076]	0	–
O=C(Cn1c(-c2cccc(Cl)c2)c(Cl)nc(NCCc2ccccc2)c1=O)NCCc1cccnc1 [Example E-0077]	0	–
O=C(Cn1c(-c2cccc(Cl)c2)c(Cl)nc(NCCc2cccc(Cl)c2)c1=O)NCCc1ccncc1 [Example E-0079]	0	–
O=C(Cn1c(-c2cccc(Cl)c2)c(Cl)nc(NCCc2cccc(Cl)c2)c1=O)NCCc1cccnc1 [Example E-0080]	1	–
O=C(Cn1c(-c2cccc(Cl)c2)c(Cl)nc(NCCc2ccc(Cl)cc2)c1=O)NCCc1ccncc1 [Example E-0082]	4	–
O=C(Cn1c(-c2cccc(Cl)c2)c(Cl)nc(NCc2ccccc2)c1=O)NCCc1ccncc1 [Example E-0085]	0	–
O=C(Cn1c(-c2cccc(Cl)c2)c(Cl)nc(NCCc2ccccc2)c1=O)NCCc1cccnc1 [Example E-0089]	3	–
O=C(Cn1c(-c2cccc(Cl)c2)c(Cl)nc(NCCc2cccc(Cl)c2)c1=O)NCCc1ccncc1 [Example E-0091]	1	–
O=C(Cn1c(-c2cccc(Cl)c2)c(Cl)nc(NCCc2ccc(Cl)cc2)c1=O)NCCc1ccncc1 [Example E-0094]	2	–
O=C(Cn1c(-c2cccc(Cl)c2)c(Cl)nc(NCCc2ccc(Cl)cc2)c1=O)NCCc1cccnc1 [Example E-0095]	2	–
COc1ccc(-c2c(Cl)nc(NCCc3ccc(Cl)cc3)c(=O)n2CC(=O)NCCc2ccncc2)cc1 [Example E-0106]	5	–
O=C(Cn1c(-c2ccc(-c3ccccc3)cc2)c(Cl)nc(NCc2ccccc2)c1=O)NCCc1ccncc1 [Example E-0109]	2	–
O=C(Cn1c(-c2ccc(-c3ccccc3)cc2)c(Cl)nc(NCCc2cccc(Cl)c2)c1=O)NCCc1cccnc1 [Example E-0116]	–	% Inhibition Factor Xa (100 µM) (Human factor Xa): 4%
O=C(Cn1c(-c2ccc(-c3ccccc3)cc2)c(Cl)nc(NCCc2ccc(Cl)cc2)c1=O)NCCc1cccnc1 [Example E-0119]	–	% Inhibition Factor Xa (100 µM) (Human factor Xa): 5%

Now from value to compound, other results behind:

% Inhibition TF-VIIa (100 µM) (TF-VIIa; 100 µM) [%]	Compound	further results
0	O=C(Cn1c(-c2ccc(Cl)cc2)c(Cl)nc(NCc2ccccc2)c1=O)NCCc1ccncc1 [Example E-0017]	–
1	O=C(Cn1c(-c2ccc(Cl)cc2)c(Cl)nc(NCCc2ccccc2)c1=O)NCCc1ccncc1 [Example E-0018]	–
0	O=C(Cn1c(-c2ccc(Cl)cc2)c(Cl)nc(NCCc2cccc(Cl)c2)c1=O)NCCc1ccncc1 [Example E-0019]	–
0	O=C(Cn1c(-c2ccc(Cl)cc2)c(Cl)nc(NCCc2cccnc2)c1=O)NCCc1ccncc1 [Example E-0021]	–
0	O=C(Cn1c(-c2ccc(Cl)cc2)c(Cl)nc(NCCN2CCOCC2)c1=O)NCCc1ccncc1 [Example E-0023]	–
0	O=C(Cn1c(-c2ccc(Cl)cc2)c(Cl)nc(NCCc2cccnc2)c1=O)NCCc1ccncc1 [Example E-0029]	–
0	O=C(Cn1c(-c2ccc(Cl)cc2)c(Cl)nc(NCCc2ccncc2)c1=O)NCCc1ccncc1 [Example E-0030]	–
4	COc1ccc(-c2c(Cl)nc(NCCc3cccc(Cl)c3)c(=O)n2CC(=O)NCCc2ccncc2)cc1 [Example E-0035]	–
0	O=C(Cn1c(-c2ccc(-c3ccccc3)cc2)c(Cl)nc(NCCc2ccccc2)c1=O)NCCc1ccncc1 [Example E-0050]	–
0	O=C(Cn1c(-c2cccc(Cl)c2)c(Cl)nc(NCc2ccccc2)c1=O)NCCc1cccnc1 [Example E-0074]	–
2	O=C(Cn1c(-c2cccc(Cl)c2)c(Cl)nc(NCCc2ccc(Cl)cc2)c1=O)NCCc1cccnc1 [Example E-0083]	–
0	O=C(Cn1c(-c2cccc(Cl)c2)c(Cl)nc(NCc2ccccc2)c1=O)NCCc1cccnc1 [Example E-0086]	–
0	O=C(Cn1c(-c2cccc(Cl)c2)c(Cl)nc(NCCc2ccccc2)c1=O)NCCc1ccncc1 [Example E-0088]	–
1	O=C(Cn1c(-c2cccc(Cl)c2)c(Cl)nc(NCCc2cccc(Cl)c2)c1=O)NCCc1cccnc1 [Example E-0092]	–
2	COc1ccc(-c2c(Cl)nc(NCCc3cccc(Cl)c3)c(=O)n2CC(=O)NCCc2ccncc2)cc1 [Example E-0103]	–
11	O=C(Cn1c(-c2ccc(-c3ccccc3)cc2)c(Cl)nc(NCCc2ccccc2)c1=O)NCCc1ccncc1 [Example E-0112]	–
12	O=C(Cn1c(-c2ccc(-c3ccccc3)cc2)c(Cl)nc(NCCc2ccc(Cl)cc2)c1=O)NCCc1ccncc1 [Example E-0118]	–
